Assay: Dissolution of ABT-PNB in water
Type: physicochemical
Procedure: Referring to Scheme 2 above, reaction of 0.2 mmol ethyl cyanoacetate with 0.2 mmol thiourea under MW-US condition for 5 min afforded compound 1. One pot reaction of 0.1 mmole of the compound (1) with 0.1 mmole of 2-nitro-6-cyanobenzoic acid (2) in boiling 2 mL ethanol under MW reaction condition for 10 min afforded 6-(imidazo[4,5-d]pyrimidin-2yl) benzoic acid derivative 3. Reflux reaction of the 0.01 mol compound 3 with 0.02 mole ethylchloroacetate in 10 mL acetone for 5 h afforded the ester 4. US promoted reaction of the 0.01 mol of the compound 4 was allowed to react with 0.01 mol of 4-(dimethylamino)butylchloride, thereby affording the desired fertilized ionic liquid ABT-PNB.

solubility in water: easily dissolved in water
Structure (SMILES): CCOC(=O)CSc1nc2c(=O)n(CCCCN(C)C)c(-c3cccc([N+](=O)[O-])c3C(=O)O)nc2[nH]1 [ABT-PNB, 2-(1-(4-(dimethylamino)butyl)-8-((2-ethoxy-2-oxoethyl)thio)-6-oxo-6,9-dihydro-1H-purin-2-yl)-6-nitrobenzoic acid]

From patent publication US11999669B1, “Nitrogen activator stabilizer for reducing and protecting nitrogen fertilizer” (KING FAISAL UNIVERSITY, priority 2023, dated 2024)
